Data: patent US20240000724A1, “Compositions and Methods for Treatment or Prevention of Oral Mucositis” (PATHWAYS BIOSCIENCE, LLC, priority 2015, published 2024)
Entries after “also recorded” stand apart in the source; their conditions may differ.

How the values were obtained:
[1] = system: Interleukin-8 (IL-8) release, primary human lung epithelial cells; assay: IL-8 release from primary human lung epithelial cells stimulated with cigarette smoke extract; assay type: cell-based; settings: primary human lung epithelial cells exposed to CSE for 7 days, vs untreated CSE-stimulated cells
Text: As an example of the cell protective mechanisms induced by PB201 treatment, release of the proinflammatory cytokine Interleukin-8 (IL-8) was attenuated in primary human lung epithelial cells treated with PB201 compared to untreated cells when both were stimulated with cigarette smoke extract (FIG. 9).

[2] = system: Nrf2 signaling pathway (HepG2 cells); assay: Short exposure time course of Nrf2 activation in HepG2 Nrf2-driven promoter luciferase reporter cells; assay type: cell-based, human; settings: 5 minutes exposure, washed off, read 24 hours later; compared with 1 or 2 hours exposure
Method: As an example of the short time course of PB201 exposure needed to activate the Nrf2 signaling pathway, HepG2 cells stably transfected with a Nrf2-driven promoter, luciferase reporter construct were treated with PB201 for 5 minutes, 1 hour, or 2 hours, then the PB201 was removed and washed off the cells, then 24 hours later the luciferase levels were measured by chemiluminescence to assay for Nrf2 activation.

[3] = system: oral mucositis; assay: Oral mucositis in a mammal receiving radiation treatment or chemotherapy, topical oral administration; assay type: in vivo; settings: topical within oral cavity daily, vs untreated or placebo
Method: A formulation of PB201 was administered topically within the oral cavity daily to a mammal receiving radiation treatment or chemotherapy that can cause oral mucositis as a side effect. PB201 administration decreased the frequency and/or severity of the oral mucositis as compared to untreated or placebo treated subjects.

[4] = Aqueous solubility / visual dissolution in PBS with and without HPBCD; assay type: physicochemical; settings: for Aqueous solubility alone: water or aqueous solutions, no solubility enhancer
Method: (§1) In this example, approaches were used to increase the aqueous distribution of the otherwise relatively insoluble 1,3-diphenyl-1,3-propanedione (DBM) by adding 2-hydroxypropyl beta-cyclodextrin (HPBCD) at a molar ratio (DBM:HPBCD) of 1:3. […] To verify its presence in the aqueous solutions, the samples were tested for activity of PB201 using HepG2-ARE promoter/reporter cells, which are responsive to PB201 and other Nrf2-activators by promoting the expression of luciferase.

[5] = system: Nrf2 (HepG2-ARE promoter/reporter cells); assay: HepG2-ARE promoter/reporter cells, Nrf2 activation (chemiluminescent signal, RLU); assay type: cell-based, human; settings: for Nrf2 activation level: 4.2 ug/mL, unstimulated baseline 7182 RLU; for Nrf2 activation (chemiluminescent signal, RLU): HepG2-ARE cells
Method: as §1
Furthermore, the Nrf2 activation by the 1,3-diphenyl-1,3-propanedione, with or without solubility enhancing agents such as HPBCD, is temporary, not permanent, and can be repeated; for example the Nrf2 activation by 4.2 ug/mL 1,3-diphenyl-1,3-propanedione decreases from its level at 17 hours (72,949 RLU) to 24 hours (47,121 RLU) after stimulation, and is nearly back to its baseline, unstimulated levels (7182 RLU) by 48 hours (11,659 RLU). Similarly, other types of agents can be utilized to increase aqueous levels of 1,3-diphenyl-1,3-propanedione including, but not limited to, surfactants, liposomes, amphiphiles, emulsifiers, and complexing agents to make solutions or suspensions.

[6] = system: radiation-induced oral mucositis (cheek pouch ulceration); assay: Radiation-induced oral mucositis in hamster cheek pouch; assay type: in vivo, Syrian Golden Hamsters; settings: 40 Gy day 0; topical cheek pouch 1 to 10 μg PB201 3×/day days 0 to 28; scored days 6 to 28
Method: In this example, a single dose of radiation (40 Gy) was given on day 0 to the isolated cheek pouch and PB201 treatment was given by topical cheek pouch administration of 1 to 10 μg PB201 given three times daily from days 0 to 28 as 0.2 mL of 5 μg/mL given 3×/day or 0.2 mL of 50 μg/mL given 3×/day, and oral mucositis was determined as cheek pouch ulceration, scored every 2 days from days 6 to 28. Mucositis was scored visually by comparison to a validated photographic scale, ranging from 0 (normal) to 5 (severe ulceration). In descriptive terms, this scale is defined as follows.
A score of 1-2 is considered to represent a mild stage of the disease, whereas a score of 3-5 is considered to indicate moderate to severe mucositis.

## O=C(CC(=O)c1ccccc1)c1ccccc1 [PB201, 1,3-diphenyl-1,3-propanedione]
[1]
  IL-8 release: significantly decreased; also recorded: attenuated
[2]
  Nrf2 response (luciferase chemiluminescence): strong Nrf2 response similar to 1 or 2 hours of exposure
[3]
  Frequency and/or severity of oral mucositis: decreased
[4]; 5 mg in 1 mL PBS with 93 mg HPBCD (3:1 mole ratio)
  Visual dissolution: visually dissolved
[4]; HPBCD added, DBM:HPBCD 1:3
  Change of solubility in aqueous solution by 2-hydroxypropyl beta-cyclodextrin: greatly increased
[4]
  Aqueous solubility alone: nearly insoluble
[4]; listed as 1,3-diphenyl-1,3-propanedione
  Aqueous solubility alone: low aqueous solubility
[5]; 17 hours after stimulation
  Nrf2 activation level: 72,949 RLU
[5]; 48 hours after stimulation
  Nrf2 activation level: 11,659 RLU
[5]; PB201 in HPBCD/PBS
  Nrf2 activation (chemiluminescent signal, RLU): activated
[5]; PB201 in PBS alone
  Nrf2 activation (chemiluminescent signal, RLU): not by PB201 in PBS alone
[6]
  Protection against oral mucositis (cheek pouch ulceration score 0-5): protected against the oral mucositis
